Results reported in PubChem BioAssay AID743396 (Broad Institute, 2014).
Active and inactive are the calls of the source.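 How the source made its calls: active means fitted curve reaches a 40% rise in fluorescent cells at or below the top valid dose; inactive means opposite-direction effect, or the rest.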

Assay: compound fluorescence in GFP channel, mTEFS cells – imaging, mTEFS fibroblasts, cherry-pick, artefact control for X-chromosome reactivation project, dose response (AID 743396);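 further: raw share of Hoechst-counted cells scored GFP positive without control normalization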
Details: mTEFS fibroblasts autofluorescence, GFP-channel imaging, 3 days; at 6.8 µM (top of the series); cells pretreated with 5-aza-dC

Row | SMILES | % fluorescent cells increase
1 | CCN1/C(=C/c2ccc3cc(C)ccc3[n+]2CC)Sc2cc(C)c(C)cc21 | 27.9% (inactive)

Same assay, conditions: mTEFS fibroblasts autofluorescence, GFP-channel imaging, 3 days; at 19.5 µM (top of the series)

Row | SMILES | % fluorescent cells increase
2 | O=C(c1cccc2ccccc12)C1CCCN(Cc2ccon2)C1 (stereo unspecified) | 0% (inactive)

Same assay, conditions: mTEFS fibroblasts autofluorescence, GFP-channel imaging, 3 days; at 19.5 µM (top of the series); cells pretreated with 5-aza-dC

Row | SMILES | % fluorescent cells increase
3 | O=C(O)c1ccccc1C1Nc2ccccc2C(=O)N1CCCN1CCOCC1 (stereo unspecified) | -0.004% (inactive)
4 | CN(C1CCCCC1)S(=O)(=O)c1ccc(C(=O)N2CCN(c3nc4ccccc4s3)CC2)cc1 | -0.007% (inactive)
5 | c1ccc(CCNc2nc(-c3ccccn3)nc3ccccc23)cc1 | 0% (inactive)
6 | COc1cc(CNc2nc3ccccc3n2C)cc(OC)c1OC | 0% (inactive)
7 | Cn1c2ccccc2c2cnn(CC(=O)Nc3ccccc3Br)c(=O)c21 | -0.007% (inactive)
8 | C[C@H](CO)N1C[C@H](C)[C@H](CN(C)S(=O)(=O)c2ccccc2)Oc2ccc(NS(=O)(=O)c3ccc(Cl)cc3)cc2C1=O | 0.016% (inactive)
9 | O=C1N[C@H](Cc2ccccc2)COCc2cn(nn2)CC[C@@H]1Cc1ccccc1 | 0.024% (inactive)
10 | O=C(O)c1cccnc1C(=O)N1CCc2c([nH]c3ccccc23)C1C(F)(F)F (stereo unspecified) | 0.447% (inactive)
11 | Cc1ccc(-c2[nH]c(=S)[nH]c(=O)c2C#N)cc1 | 0.007% (inactive)
12 | COc1ccccc1C(=O)Nc1nnc(S(=O)(=O)N2CCCCCC2)s1 | 0.055% (inactive)
13 | CCOC(=O)Nc1cc2c(c(N)n1)N=C(c1ccccc1)CN2 | 0.925% (inactive)
14 | COc1ccc(CNC(=O)c2ccc(-c3cnn(C)c3)c3ccoc23)cc1OC | 1.28% (inactive)
15 | CCN1CCN(c2cc3nc(C)n(Cc4ccccc4)c(=O)c3cc2NC(=O)c2ccccc2F)CC1 | 0% (inactive)
16 | CCn1c(Cl)c(C=O)s/c1=N\S(=O)(=O)c1ccccc1 | 0% (inactive)
17 | CNc1ncnc(Sc2ccc(Cl)cc2)c1[N+](=O)[O-] | 0% (inactive)
18 | O=C(CNC(=O)c1ccccc1F)OCc1nc2ccccc2s1 | 0.037% (inactive)
19 | CCc1ccccc1OCC(=O)Nc1ccc(N2CCCC2)cc1C | 0.096% (inactive)
20 | O=C(CCl)N=c1sccn1Cc1cccc2ccccc12 | 9.31% (inactive)
21 | O=C(CCC(=O)Nc1cccnc1)Nc1cccnc1 | 0.042% (inactive)
22 | COc1cccc(CNC(=O)C(Cc2ccccc2)n2cccc2)c1 (stereo unspecified) | 0% (inactive)
23 | CCOc1ccccc1N1C(=O)CC(Sc2nccc(C)n2)C1=O (stereo unspecified) | 0% (inactive)
24 | CC(C)OC(=O)CC(=O)CSc1nc(-c2ccc(F)cc2)cc(-c2ccccc2)c1C#N | 0.594% (inactive)
25 | CN(C)C(=O)C[C@@H]1C=C[C@H](NS(=O)(=O)c2ccccc2)[C@@H](CO)O1 | 0% (inactive)
26 | CC(C)c1ccc(N2C(=O)/C(=C/N(C)C)SC2=S)cc1 | 0.026% (inactive)
27 | COc1cccc(CNC(=O)c2cc(S(=O)(=O)N3CCCC3)cn2C)c1 | 0% (inactive)
28 | O=C(CCn1nc(-c2ccc(Cl)cc2)c2ccccc2c1=O)NN1CCOCC1 | 0.116% (inactive)
29 | COc1ccccc1/C=C/C(=O)OCCCN(C)C | 0% (inactive)

Row | SMILES | % fluorescent cells increase
30 | Cc1ccc(S(=O)(=O)N(C)C[C@H]2OCCCC[C@@H](C)Oc3ccc(NC(=O)Nc4c(C)noc4C)cc3C(=O)N([C@H](C)CO)C[C@@H]2C)cc1 | 0.012% (inactive)
31 | COc1ccc(NC(=O)C(=O)NCCC2CCCCN2S(=O)(=O)c2cccs2)cc1 (stereo unspecified) | 2.33% (inactive)
32 | CC(C)CC(=O)Nc1c2c(nn1-c1ccc(F)cc1)CSC2 | 0.007% (inactive)
33 | CCOC(=O)c1sc(-c2ccc(F)cc2)cc1NC(=O)Nc1ccccc1OC | -0.011% (inactive)
34 | Cc1cccc(-c2ccc([C@H]3[C@H](CO)N4CCCCN(C(=O)NC(C)C)C[C@@H]34)cc2)c1 | -0.166% (inactive)
35 | O=C(c1ccc(Br)cc1)c1cc([N+](=O)[O-])ccc1N1CCOCC1 | 4.03% (inactive)
36 | Cc1ccc(N2C(=O)C3C4C=CC(CNC(=S)N5CCN(c6ccccc6)CC5)(O4)C3C2=O)cc1 (stereo unspecified) | 1.71% (inactive)
37 | COC(=O)c1c(NC(=O)c2ccc(C)cc2)csc1C | -0.006% (inactive)
38 | Brc1ccc(-c2cn3ccccc3n2)cc1 | 0% (inactive)
39 | Cc1ccsc1/C=N/n1c(-c2cc(-c3ccccc3)n[nH]2)n[nH]c1=S | 0% (inactive)
40 | Cc1ccc(S(=O)(=O)N(C)c2ccc(C)c([N+](=O)[O-])c2)cc1 | 0.055% (inactive)
41 | CN1c2ccc(-c3ccc(C#N)cc3)cc2[C@@H]2[C@@H](CCN2C(=O)NC2CCCCC2)[C@H]1CO | 0.092% (inactive)
42 | NC(=O)c1sc2nc3c(cc2c1N)CCCCCC3 | 0.03% (inactive)
43 | CCOc1ccc(N2C(=O)CC(Sc3nc(O)c(CC)c(=O)[nH]3)C2=O)cc1 (stereo unspecified) | -0.007% (inactive)
44 | C=C(C)c1cccc(C(C)(C)NC(=O)Nc2nnc(C(C)C)s2)c1 | 0% (inactive)
45 | CCN(CC)c1ccc(/C=C/C(=O)C2C(=O)C=C(C)OC2=O)cc1 (stereo unspecified) | 1.2% (inactive)
46 | Cc1ccc(NC(=O)c2ncn(CCCNCCCN(C)C)n2)cc1C | 0% (inactive)
47 | CCOC(=O)N1CCN(C(=O)Cn2ccc3c(OC)cccc3c2=O)CC1 | 0.012% (inactive)
48 | Cc1cc(/C=C2\SC(=S)N(Cc3ccco3)C2=O)c(C)n1-c1ccccc1 | 0.981% (inactive)
49 | COc1ccccc1NC(=S)N(CCCN1CCOCC1)Cc1cccs1 | -0.007% (inactive)
50 | CCCCC(CCC(=O)Nc1ccn(-c2ccccc2)n1)C(=O)O (stereo unspecified) | -0.003% (inactive)
51 | CCOCCCn1c(=NC(C)=O)c(C#N)cc2c(=O)n3cccc(C)c3nc21 | 0.498% (inactive)
52 | CCCN(C)C[C@@H]1OCc2cnnn2CCCC(=O)N([C@H](C)CO)C[C@H]1C | 0.007% (inactive)
53 | CCOC(=O)c1ccc(NC(=O)c2ccnn2C)cc1 | 0% (inactive)
54 | Nc1ccccc1C#CC(=O)c1ccccc1 | 0% (inactive)
55 | O=[N+]([O-])c1ccc(/C=N/NC(=S)Nc2ccc(Cl)cc2Cl)s1 | 0.614% (inactive)
56 | Cn1c(=O)[nH]c(=O)c2c1nc1n2CCCN1Cc1ccccc1 | -0.011% (inactive)

Row | SMILES | % fluorescent cells increase
57 | COc1ccccc1CNC(=O)COC(=O)COc1ccccc1F | 1.84% (inactive)
58 | COc1ccc(S(=O)(=O)N(C)C[C@H]2Oc3ccc(NS(=O)(=O)c4ccc(F)cc4)cc3CC(=O)N([C@@H](C)CO)C[C@@H]2C)cc1 | 0% (inactive)
59 | C[C@@H]1CCCCO[C@H](CN(C)Cc2ccc3c(c2)OCO3)[C@@H](C)CN([C@H](C)CO)C(=O)c2cc(NS(=O)(=O)c3ccc(F)cc3)ccc2O1 | 0.175% (inactive)
60 | CCc1ccc(NS(=O)(=O)c2ccc3[nH]cc(C(=O)N4CCc5ccccc54)c(=O)c3c2)cc1 | 0% (inactive)
61 | CO[C@H]1CN(C)C(=O)c2ccc(NC(=O)Cc3ccccc3)cc2OC[C@@H](C)N(C)C[C@H]1C | 0% (inactive)
62 | COc1ccc(/C=C\c2onc(C)c2S(=O)(=O)N2CCC(C(=O)NCc3ccco3)CC2)cc1 | 0.029% (inactive)
63 | Cc1ccc(-c2ccc3c(c2)O[C@@H](CN(C)Cc2ccncc2)[C@@H](C)CN([C@@H](C)CO)S3(=O)=O)cc1 | 0.037% (inactive)
64 | COc1ccc2c3c(n(C)c2c1)[C@@H](CO)N(C)CC31CN(C(=O)NC(C)C)C1 | -0.14% (inactive)
65 | C[C@H]1CCCCO[C@@H](CN(C)C(=O)Nc2ccc(C(F)(F)F)cc2)[C@@H](C)CN([C@@H](C)CO)C(=O)c2cc(NC(=O)CCC(F)(F)F)ccc2O1 | -0.166% (inactive)
66 | COc1ccc(NC(=O)C(C)N2C(=O)c3ccccc3C2=O)c(OC)c1 (stereo unspecified) | 0.081% (inactive)
67 | CC(=O)Nc1sc(C)c(C)c1C(=O)OCC(=O)Nc1cc(S(C)(=O)=O)ccc1Cl | 0.274% (inactive)
68 | CN(Cc1nc(CCc2ccccc2)no1)Cc1cccs1 | 0.295% (inactive)
69 | C/C=C/c1ccc(C2[C@H]3CNC[C@@H]2N3Cc2cc(-c3ccccc3)on2)cc1 (stereo partly specified) | -0.166% (inactive)
70 | Cc1ccc(-c2nc3ccc(Br)cn3c2Cc2ccccc2C(F)(F)F)cc1 | 0.042% (inactive)
71 | C[C@@H]1CN([C@H](C)CO)C(=O)c2cc(NC(=O)Nc3ccc4c(c3)OCO4)ccc2O[C@@H](C)CCCCO[C@@H]1CN(C)C(=O)Cc1ccccc1 | 0.027% (inactive)
72 | COc1ccc(-c2ccc(C3[C@@H]4CN(S(=O)(=O)c5ccccc5C)C[C@H]3N4)cc2)cc1 (stereo partly specified) | 0% (inactive)
73 | O=C1C=CC(=O)C(CNc2ccc(C(=O)OCc3ccccc3)cc2)=C1 | 0% (inactive)
74 | C[C@@H]1CCCCO[C@@H](CN(C)C(=O)Nc2ccc(C(F)(F)F)cc2)[C@@H](C)CN([C@H](C)CO)C(=O)c2cc(NS(=O)(=O)c3ccc(F)cc3)ccc2O1 | -0.166% (inactive)
75 | CC(=O)N/C(N)=N/c1nc(=O)c2ccccc2s1 | 0.24% (inactive)
76 | COc1ccc(S(=O)(=O)Nc2cccc3c2O[C@H](CN(C)S(=O)(=O)c2cn(C)cn2)[C@H](C)CN([C@H](C)CO)C3=O)cc1 | 0.016% (inactive)
77 | Nc1ccccc1Nc1cc(-c2ccccc2)[nH]n1 | 2.52% (inactive)
78 | Nc1ccc(-c2nc3ccccc3[nH]2)cc1 | 0% (inactive)
79 | COc1cc(CN2CCC(C(=O)NCC(C)(C)CN(C)C)CC2)ccc1OCc1ccccc1 | 0.013% (inactive)
80 | CCCOc1ccc(Oc2nc(-c3ccncc3)nc3ccccc23)cc1 | 0.007% (inactive)
81 | COc1ccc(CCn2c(C)cc(C(=O)CN3C(=O)C(=O)N(Cc4ccco4)C3=O)c2C)cc1 | 0% (inactive)
